Experimental data taken from ChEMBL document CHEMBL2203203, “Structure-activity relationships of 2-arylamido-5,7-dihydro-4H-thieno[2,3-c]pyran-3-carboxamide derivatives as cannabinoid receptor agonists and their analgesic action” (Bioorg Med Chem Lett, 2012).

Key:
Homo sapiens = species on record: Homo sapiens; assay: Selectivity ratio of EC50 for human CB1 receptor to EC50 for human CB2 receptor
Cannabinoid receptor 1 [1] = target: T1, Cannabinoid receptor 1 (Homo sapiens, UniProt P21554); assay: Agonist activity at human CB1 receptor after 4 hrs by luciferase reporter gene assay; format: functional
T1 sequence (P21554 whole entry): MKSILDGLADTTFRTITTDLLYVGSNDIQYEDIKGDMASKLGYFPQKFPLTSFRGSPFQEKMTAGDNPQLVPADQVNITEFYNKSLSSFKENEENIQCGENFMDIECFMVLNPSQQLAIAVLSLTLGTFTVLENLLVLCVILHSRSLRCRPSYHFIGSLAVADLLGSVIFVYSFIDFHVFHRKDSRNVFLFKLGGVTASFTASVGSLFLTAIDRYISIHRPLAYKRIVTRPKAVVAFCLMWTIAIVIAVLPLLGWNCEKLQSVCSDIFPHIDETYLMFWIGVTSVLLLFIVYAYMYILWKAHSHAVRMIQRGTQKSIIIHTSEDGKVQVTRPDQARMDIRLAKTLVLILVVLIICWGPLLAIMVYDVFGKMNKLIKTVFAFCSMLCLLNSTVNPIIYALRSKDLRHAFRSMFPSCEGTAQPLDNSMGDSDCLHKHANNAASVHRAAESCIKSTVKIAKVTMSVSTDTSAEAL

Cannabinoid receptor 1 [2] = target: T1, Cannabinoid receptor 1; assay: Agonist activity at human CB1 receptor after 4 hrs by luciferase reporter gene assay relative to control; format: functional
Cannabinoid receptor 2 [3] = target: T2, Cannabinoid receptor 2 (Homo sapiens, UniProt P34972); assay: Agonist activity at human CB2 receptor after 4 hrs by luciferase reporter gene assay relative to control; format: functional
T2 sequence (P34972 whole entry): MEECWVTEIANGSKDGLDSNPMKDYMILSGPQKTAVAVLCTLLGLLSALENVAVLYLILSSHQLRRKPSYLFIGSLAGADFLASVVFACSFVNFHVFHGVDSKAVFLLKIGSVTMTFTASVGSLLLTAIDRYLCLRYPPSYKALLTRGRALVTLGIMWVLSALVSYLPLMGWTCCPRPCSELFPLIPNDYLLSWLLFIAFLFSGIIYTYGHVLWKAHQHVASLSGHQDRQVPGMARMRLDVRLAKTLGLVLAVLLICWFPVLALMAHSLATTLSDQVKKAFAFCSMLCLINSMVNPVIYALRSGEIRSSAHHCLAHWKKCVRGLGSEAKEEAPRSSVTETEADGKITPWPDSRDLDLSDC

Cannabinoid receptor 2 [4] = target: T2, Cannabinoid receptor 2; assay: Agonist activity at human CB2 receptor after 4 hrs by luciferase reporter gene assay; format: functional

SMILES	Ratio EC50 (Homo sapiens)	EC50 (Cannabinoid receptor 1 [1])	Efficacy (Cannabinoid receptor 1 [2])	Efficacy (Cannabinoid receptor 2 [3])	EC50 (Cannabinoid receptor 2 [4])
O=C(Nc1sc2c(c1C(=O)NCC1CC1)CCOC2)c1ccccc1OC(F)(F)F	15	519 nM	88%	94%	35 nM
O=C(Nc1sc2c(c1C(=O)O)CCOC2)c1ccccc1Cl	–	> 10000 nM	–	–	> 10000 nM
O=C(CN1CCCC1)Nc1sc2c(c1C(=O)N1CC(F)(F)C1)CCCC2	> 25	> 10000 nM	–	89%	394 nM
COCCNC(=O)c1c(NC(=O)c2ccccc2OC(F)(F)F)sc2c1CCOC2	> 104	> 10000 nM	–	100%	96 nM
COCC(C)(C)NC(=O)c1c(NC(=O)c2c(F)cccc2C(F)(F)F)sc2c1CCOC2	> 135	> 10000 nM	–	94%	74 nM
CC(C)(C)C(=O)c1c(NC(=O)c2ccccc2C(F)(F)F)sc2c1CCOC2	> 11	> 10000 nM	–	88%	897 nM
O=C(CN1CCCCC1)Nc1sc2c(c1C(=O)N1CCC(F)(F)CC1)CCCC2	126	3220 nM	100%	104%	26 nM
COCC(C)(C)NC(=O)c1c(NC(=O)c2ccccc2OC(F)(F)F)sc2c1CCOC2	> 100	> 10000 nM	–	81%	101 nM
COC1CN(C(=O)c2c(NC(=O)c3c(F)cccc3C(F)(F)F)sc3c2CCOC3)C1	275	6610 nM	55%	100%	24 nM
COCCNC(=O)c1c(NC(=O)c2ccccc2Cl)sc2c1CCC(F)(F)C2	21	958 nM	97%	105%	46 nM
COCC(C)(C)NC(=O)c1c(NC(=O)c2ccccc2C(F)(F)F)sc2c1CCOC2	> 243	> 10000 nM	–	93%	41 nM
COCCNC(=O)c1c(NC(=O)CC(C)(C)C)sc2c1CCOC2	> 20	> 10000 nM	–	101%	489 nM
O=C(Nc1sc2c(c1C(=O)N1CCCCC1)CCOC2)c1c(F)cccc1C(F)(F)F	71	1000 nM	94%	103%	14 nM
COCCNC(=O)c1c(NC(=O)C2CCCN2C(=O)C2CC2)sc2c1CCCC2 (stereo not drawn)	> 29	> 10000 nM	–	88%	344 nM
Cc1ccccc1C(=O)Nc1sc2c(c1C(=O)N1CCOCC1)CCOC2	12	7450 nM	97%	105%	646 nM
CC(C)c1ccccc1C(=O)Nc1sc2c(c1C(=O)N1CCOCC1)CCOC2	42	1500 nM	105%	101%	35 nM
O=C(Nc1sc2c(c1C(=O)NCC1CC1)CCC2)c1ccccc1Cl	> 94	> 10000 nM	–	76%	106 nM
CC1OCc2sc(NC(=O)CC(C)(C)C)c(C(=O)N3CC(F)(F)C3)c21 (stereo not drawn)	36	217 nM	94%	105%	6 nM
CC(C)(C)C(=O)c1c(NC(=O)c2ccccc2OC(F)(F)F)sc2c1CCOC2	> 11	> 10000 nM	–	102%	939 nM
COCCNC(=O)c1c(NC(=O)CN2CCCCC2)sc2c1CCCC2	> 65	> 10000 nM	–	98%	152 nM
COC1CN(C(=O)c2c(NC(=O)CN3CCCCC3)sc3c2CCCC3)C1	> 45	> 10000 nM	–	92%	219 nM

SMILES	Ratio EC50 (Homo sapiens)	EC50 (Cannabinoid receptor 1 [1])	Efficacy (Cannabinoid receptor 1 [2])	Efficacy (Cannabinoid receptor 2 [3])	EC50 (Cannabinoid receptor 2 [4])
COC1CN(C(=O)c2c(NC(=O)c3ccccc3OC(F)(F)F)sc3c2CCOC3)C1	37	1420 nM	45%	100%	38 nM
O=C(Nc1sc2c(c1C(=O)N1CCOCC1)CCOC2)c1cccc(OC(F)(F)F)c1	> 10	> 10000 nM	–	77%	749 nM
O=C(Nc1sc2c(c1C(=O)N1CCOCC1)CCOC2)c1ccccc1OC(F)(F)F	> 90	> 10000 nM	–	106%	103 nM
COCCNC(=O)c1c(NC(=O)c2ccccc2OC(F)(F)F)sc2c1CCC(F)(F)C2	> 145	> 10000 nM	–	96%	63 nM
O=C(Nc1sc2c(c1C(=O)N1CCOCC1)CCOC2)c1ccc(Cl)cc1	–	> 10000 nM	–	–	> 10000 nM
CC1OCc2sc(NC(=O)CC(C)(C)C)c(C(=O)N3CCCCC3)c21 (stereo not drawn)	42	1660 nM	88%	91%	40 nM
COCCNC(=O)c1c(NC(=O)CC(C)(C)C)sc2c1CCCC2	84	1910 nM	90%	94%	23 nM
O=C(Nc1sc2c(c1C(=O)N1CCOCC1)CCOC2)c1c(Cl)cccc1Cl	7	4640 nM	78%	76%	695 nM
COCCNC(=O)c1c(NC(=O)C2CCC2)sc2c1CCCC2	> 49	> 10000 nM	–	101%	201 nM
O=C(Nc1sc2c(c1C(=O)N1CCOCC1)CCOC2)c1cccc(Cl)c1	–	> 10000 nM	–	98%	1420 nM
O=C(Nc1sc2c(c1C(=O)N1CC(F)(F)C1)CCC(F)(F)C2)c1ccccc1Cl	2	81 nM	95%	98%	49 nM
O=C(Nc1sc2c(c1C(=O)N1CCOCC1)CCOC2)c1ccccc1OC(F)F	> 20	> 10000 nM	–	96%	488 nM
COCCNC(=O)c1c(NC(=O)C2CCCC2)sc2c1CCOC2	> 32	> 10000 nM	–	84%	313 nM
COCCNC(=O)c1c(NC(=O)c2ccccc2Cl)sc2c1CCC2	> 72	> 10000 nM	–	52%	137 nM
O=C(Nc1sc2c(c1C(=O)N1CCOCC1)CCOC2)c1ccc(Cl)cc1Cl	–	> 10000 nM	–	108%	9350 nM
COc1ccccc1C(=O)Nc1sc2c(c1C(=O)N1CCOCC1)CCOC2	–	> 10000 nM	–	–	> 10000 nM
O=C(CN1CCCCC1)Nc1sc2c(c1C(=O)N1CC(F)(F)C1)CCCC2	> 178	> 10000 nM	–	103%	56 nM
O=C(CN1CCCC1)Nc1sc2c(c1C(=O)N1CCC(F)(F)CC1)CCCC2	> 48	> 10000 nM	–	87%	209 nM
CC(C)(C)CC(=O)Nc1sc2c(c1C(=O)N1CCC(F)(F)CC1)C(C)(C)CC2	> 77	> 10000 nM	–	96%	129 nM
O=C(Nc1sc2c(c1C(=O)N1CCOCC1)CCOC2)c1ccccc1-c1ccccc1	–	> 10000 nM	–	63%	7890 nM
